What all share (type): in vivo
For assay [1], the system named is Phytophthora infestans. Put plainly: whole plant or invertebrate. Particulars: Phytophthora infestans, in Solanum lycopersicum, foliar; for pest or weed control at 200 ppm: read-out: PHYTIN disease control, 200 ppm applied to foliage of tomato, inoculated one day after treatment.
Assay [2] concerns Erysiphe cichoracaerum. Put plainly: Cucumber Powdery Mildew (ERYSCI) whole-plant disease control test. The conditions noted are these: Erysiphe, foliar; for pest or weed control at 200 ppm: 200 ppm applied to foliage of cucumber, inoculated one day after treatment, read-out: ERYSCI disease control.
The test system of assay [3] is Mycosphaerella graminicola=Septoria tritici. Put plainly: Speckled Leaf Blotch of Wheat (SEPTTR) whole-plant disease control test. Particulars: Mycosphaerella, foliar, 75 ppm applied to foliage of wheat; read-out: SEPTTR disease control.
In assay [4] the test system is Leptosphaeria nodorum. Put plainly: Glume Blotch of Wheat (LEPTNO) whole-plant disease control test. Particulars: Parastagonospora nodorum, foliar; for pest or weed control at 200 ppm: 200 ppm applied to foliage of wheat, inoculated one day after treatment, read-out: LEPTNO disease control.
The test system of assay [5] is Magnaporthe grisea=Pyricularia oryzae. Put plainly: whole plant or invertebrate. Particulars: Pyricularia oryzae, foliar; for pest or weed control at 200 ppm: read-out: PYRIOR disease control, 200 ppm applied to foliage of rice, inoculated one day after treatment.
Assay [6] relates to Colletotricum lagenarium. Put plainly: Cucumber Anthracnose (COLLLA) whole-plant disease control test. The conditions noted are these: Cucumis sativus, foliar; for pest or weed control at 200 ppm: 200 ppm applied to foliage of cucumber, inoculated one day after treatment, read-out: COLLLA disease control.
In assay [7] the test system is Puccinia recondita tritici. Put plainly: Leaf Rust of Wheat (PUCCRT) whole-plant disease control test. Particulars: Puccinia recondita, foliar; for pest or weed control at 200 ppm: 200 ppm applied to foliage of wheat, inoculated one day after treatment, read-out: PUCCRT disease control.
The mark [8] stands for this setting: 100 ppm (footnote a), cucumber foliage.

On to `COc1nc(OC)nc(Oc2ccc(CCNc3ncnc4scc(Cl)c34)cc2)n1` [Compound 26], for which the pest or weed control at 200 ppm in assay [1] was in the range of 0 to 49%; in assay [2], 0 to 49%; in assay [4] it was 0 to 49%; in assay [5], 50 to 79%; in assay [6], 0 to 49%; in assay [7], 80 to 100%. The pest or weed control at 75 ppm in assay [3] lay within 0 to 49%.

Consider `FC(F)(F)c1ccnc(Oc2ccc(CCNc3ncnc4scc(Cl)c34)cc2)n1` [Compound 27], for which the pest or weed control at 200 ppm was in the range of 50 to 79% in assay [1]; 80 to 100% in assay [2]; 0 to 49% in assay [4]; 80 to 100% in assay [5]; 50 to 79% in assay [6]; 80 to 100% in assay [7]. For the same compound, the pest or weed control at 75 ppm in assay [3] was in the range of 50 to 79%.

As for `N#Cc1cccnc1Oc1ccc(CCNc2ncnc3scc(Cl)c23)cc1` [Compound 28], the pest or weed control at 200 ppm in assay [1] lay in the range of 0 to 49%; in assay [2], 0 to 49%; in assay [4], 50 to 79%; in assay [5], 50 to 79%; in assay [6], 50 to 79%; in assay [7], 80 to 100%. Moreover, the pest or weed control at 75 ppm in assay [3] lay in the range of 50 to 79%.

Take `N#Cc1ncc(F)cc1Oc1ccc(CCNc2ncnc3scc(Cl)c23)cc1` [Compound 29]: the pest or weed control at 200 ppm in assay [1] was in the range of 0 to 49%; in assay [2], 0 to 49%; in assay [4], 0 to 49%; in assay [5] it was 50 to 79%; in assay [6], 50 to 79%; in assay [7], 80 to 100%. Besides, the pest or weed control at 75 ppm in assay [3] was 50 to 79%.

For `N#Cc1ncc(Oc2ccc(CCNc3ncnc4scc(Cl)c34)cc2)cc1F` [Compound 30], the pest or weed control at 200 ppm in assay [1] was 50 to 79%; in assay [2], 50 to 79%; in assay [4] it was 0 to 49%; in assay [5] it was 80 to 100%; in assay [6], 80 to 100%; in assay [7] it was 80 to 100%. Further, the pest or weed control at 75 ppm in assay [3] was in the range of 50 to 79%.

In the case of `N#Cc1cccc(Oc2ccc(CCNc3ncnc4scc(Cl)c34)cc2)n1` [Compound 32], the pest or weed control at 200 ppm in assay [1] fell in the range of 50 to 79%; in assay [2], 80 to 100%; in assay [4], 0 to 49%; in assay [5] it was 80 to 100%; in assay [6], 50 to 79%; in assay [7] it was 80 to 100%. Besides, in assay [3], the pest or weed control at 75 ppm fell in the range of 50 to 79%.

Take `CN(C)NC(=O)c1ccc(Oc2ccc(CCNc3ncnc4scc(Cl)c34)cc2)nc1` [Compound 33, 6-{4-[2-(5-Chlorothieno[2,3-d]pyrimidin-4-ylamino)ethyl]phenoxy}nicotinic acid N′,N′-dimethylhydrazide]: the pest or weed control at 200 ppm in assay [1] lay in the range of 50 to 79%; in assay [2] it was 0 to 49%; in assay [4], 0 to 49%; in assay [5], 80 to 100%; in assay [6], 50 to 79%; in assay [7] it was 80 to 100%. The pest or weed control at 75 ppm in assay [3] was 0 to 49%.

On to `CO/N=C\c1ccc(Oc2ccc(CCNc3ncnc4scc(Cl)c34)cc2)nc1` [Compound 34, 6-{4-[2-(5-Chlorothieno[2,3-d]pyrimidin-4-ylamino)ethyl]phenoxy}pyridine-3-carbaldehyde O-methyloxime], for which the pest or weed control at 200 ppm lay in the range of 0 to 49% in assay [1]; 80 to 100% in assay [2]; 0 to 49% in assay [4]; 80 to 100% in assay [5]; 80 to 100% in assay [6]; 80 to 100% in assay [7]. In assay [3], the pest or weed control at 75 ppm is 50 to 79%.

On to `Fc1cccc(Oc2ccc(CCNc3ncnc4scc(Cl)c34)cc2)n1` [Compound 36], for which the pest or weed control at 200 ppm in assay [1] is 0 to 49%; in assay [2] it was 80 to 100%; in assay [4], 0 to 49%; in assay [5] it was 80 to 100%; in assay [6] it was 50 to 79%; in assay [7], 80 to 100%. Besides, the pest or weed control at 75 ppm in assay [3] was in the range of 50 to 79%.

In the case of `Clc1cccc(Oc2ccc(CCNc3ncnc4scc(Cl)c34)cc2)n1` [Compound 37], the pest or weed control at 200 ppm fell in the range of 0 to 49% in assay [1]; 80 to 100% in assay [2]; 0 to 49% in assay [4]; 80 to 100% in assay [5]; 80 to 100% in assay [6]; 80 to 100% in assay [7]. Besides, the pest or weed control at 75 ppm in assay [3] is 50 to 79%.

Turning to `Clc1csc2ncnc(NCCc3ccc(Oc4cnccn4)cc3)c12` [Compound 38], the pest or weed control at 200 ppm in assay [1] lay in the range of 50 to 79%; in assay [2], 50 to 79%; in assay [4], 0 to 49%; in assay [5] it was 50 to 79%; in assay [6] it was 50 to 79%; in assay [7], 80 to 100%. The pest or weed control at 75 ppm in assay [3] is 50 to 79%.

Turning to `CC(=O)c1ccc(Oc2ccc(CCNc3ncnc4scc(Cl)c34)cc2)nc1` [Compound 39], the pest or weed control at 200 ppm was in the range of 80 to 100% in assay [1]; 50 to 79% in assay [2]; 0 to 49% in assay [4]; 80 to 100% in assay [5]; 0 to 49% in assay [6]; 80 to 100% in assay [7]. The pest or weed control at 75 ppm in assay [3] lay in the range of 0 to 49%.

Turning to `N#Cc1ncc(Oc2ccc(CCNc3ncnc4scc(Cl)c34)cc2)cn1` [Compound 40], the pest or weed control at 200 ppm in assay [1] was in the range of 80 to 100%; in assay [2], 50 to 79%; in assay [4], 0 to 49%; in assay [5] it was 80 to 100%; in assay [6] it was 0 to 49%; in assay [7] it was 80 to 100%. The pest or weed control at 75 ppm in assay [3] was in the range of 0 to 49%.

`N#Cc1ccnc(Oc2ccc(CCNc3ncnc4scc(Cl)c34)cc2)n1` [Compound 41]: the pest or weed control at 200 ppm in assay [1] was in the range of 80 to 100%; in assay [2], 50 to 79%; in assay [4], 0 to 49%; in assay [5], 80 to 100%; in assay [6] it was 0 to 49%; in assay [7] it was 80 to 100%. The pest or weed control at 75 ppm in assay [3] lay in the range of 0 to 49%.

On to `Cc1cc(Br)cnc1Oc1ccc(CCNc2ncnc3scc(Cl)c23)cc1` [Compound 42], for which the pest or weed control at 200 ppm was in the range of 0 to 49% in assay [1]; 0 to 49% in assay [2]; 50 to 79% in assay [4]; 80 to 100% in assay [5]; 0 to 49% in assay [6]; 0 to 49% in assay [7]. In addition, the pest or weed control at 75 ppm in assay [3] lay in the range of 80 to 100%.

Regarding `Clc1csc2ncnc(NCCc3ccc(Oc4cc(I)ccn4)cc3)c12` [Compound 43], the pest or weed control at 200 ppm was 0 to 49% in assay [1]; 80 to 100% in assay [2]; 80 to 100% in assay [4]; 80 to 100% in assay [5]; 50 to 79% in assay [6]; 80 to 100% in assay [7]. Also, in assay [3], the pest or weed control at 75 ppm lay in the range of 80 to 100%.

For `FC(F)(F)COc1ccnc(Oc2ccc(CCNc3ncnc4scc(Cl)c34)cc2)n1` [Compound 44], the pest or weed control at 200 ppm in assay [1] lay within 50 to 79%; in assay [2] it was 50 to 79%; in assay [4] it was 80 to 100%; in assay [5], 80 to 100%; in assay [6] it was 0 to 49%; in assay [7], 80 to 100%. For the same compound, the pest or weed control at 75 ppm in assay [3] fell in the range of 80 to 100%.

`Clc1nccc(Oc2ccc(CCNc3ncnc4scc(Cl)c34)cc2)n1` [Compound 45]: the pest or weed control at 200 ppm in assay [1] is 0 to 49%; in assay [2] it was 0 to 49%; in assay [4] it was 0 to 49%; in assay [5], 50 to 79%; in assay [6] it was 0 to 49%; in assay [7], 80 to 100%. The pest or weed control at 75 ppm in assay [3] lay within 50 to 79%.

For the compound `CC(=O)c1cnc(Oc2ccc(CCNc3ncnc4scc(Cl)c34)cc2)s1` [Compound 46], the pest or weed control at 200 ppm in assay [1] was in the range of 0 to 49%; in assay [2], 0 to 49%; in assay [4], 0 to 49%; in assay [5], 50 to 79%; in assay [6] it was 0 to 49%; in assay [7], 80 to 100%. Also, in assay [3], the pest or weed control at 75 ppm is 50 to 79%.

As to `N#Cc1ccnc(Oc2ccc(CCNc3ncnc4scc(Br)c34)cc2)c1` [Compound 47], the pest or weed control at 100 ppm was 0 to 49% in assay [1] (read-out: PHYTIN disease control, 100 ppm (footnote a), tomato foliage); 80 to 100% in assay [2] (setting [8]); 0 to 49% in assay [6] (setting [8]). Besides, the pest or weed control at 75 ppm in assay [3] was 50 to 79%; in assay [4] (75 ppm (footnote b), wheat foliage), 80 to 100%. For the same compound, the pest or weed control at 8.3 ppm lay within 80 to 100% in assay [5] (read-out: PYRIOR disease control, 8.3 ppm (footnote c), rice foliage) and 80 to 100% in assay [7] (8.3 ppm (footnote c), wheat foliage).

(Values after US7531482B2, “Thieno-pyrimidine compounds having fungicidal activity” (Dow AgroSciences LLC, priority 2005, dated 2009).)
